Measurements taken from patent US10597388B2, “Pyridazinone herbicides” (FMC CORPORATION, priority 2014, dated 2020).

Assays:
Assay in all cases: Test E greenhouse herbicide test, pre- and postemergence
Assay type in all cases: in vivo
Details in all cases: Preemergence
[1] = test system: pigweed, palmer (palmer pigweed, Amaranthus palmeri)
Method in brief: (§1)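 Seeds were sown in silt loam and sprayed preemergence with compound in a non-phytotoxic solvent mix containing surfactant; for postemergence, plants at 2 to 18 cm (1- to 4-leaf stage) in peat-based potting medium were sprayed with the same formulation. After 14 to 21 d in a greenhouse, injury was rated visually against controls (0–100).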

[2] = test system: nutsedge, yellow (yellow nutsedge, Cyperus esculentus)
Method in brief: as §1

[3] = test system: lambsquarters (Chenopodium album)
Method in brief: as §1

[4] = test system: dayflower (Virginia (VA) dayflower, Commelina virginica)
Method in brief: as §1

corn (Zea mays) = test system: corn (Zea mays)
Method in brief: as §1

soybean (Glycine max) = test system: soybean (Glycine max)
Method in brief: as §1

[5] = test system: barnyardgrass (Echinochloa crus-galli)
Method in brief: as §1

[6] = test system: ragweed (common ragweed, Ambrosia elatior)
Method in brief: as §1

[7] = test system: johnsongrass (Sorghum halepense)
Method in brief: as §1

[8] = test system: foxtail, giant (giant foxtail, Setaria faberii)
Method in brief: as §1

[9] = test system: velvetleaf (Abutilon theophrasti)
Method in brief: as §1

[10] = test system: sandbur (southem sandbur, Cenchrus echinatus)
Method in brief: as §1

[11] = test system: foxtail, green (green foxtail, Setaria viridis)
Method in brief: as §1

[12] = test system: horseweed (Conyza canadensis)
Method in brief: as §1

[13] = test system: beggarticks (hairy beggarticks, Bidens pilosa)
Method in brief: as §1

[14] = test system: panicum, fall (fall panicum, Panicum dichotomiflorum)
Method in brief: as §1

[15] = 62 g ai/ha, scale 0 to 100 (0 no effect, 100 complete control)
[16] = 125 g ai/ha, scale 0 to 100 (0 no effect, 100 complete control)
[17] = 31 g ai/ha, scale 0 to 100, 0 no effect, 100 complete control
[18] = 250 g ai/ha, visual, scale 0 no effect to 100 complete control
[19] = 125 g ai/ha, visual, scale 0 no effect to 100 complete control

## Cc1ccc2ccccc2c1-c1c(O)c(I)nn(C)c1=O [Compound 29]
[1]; [15]
  Plant response rating, Pigweed, Palmer: 70
[1]; [16]
  Plant response rating, Pigweed, Palmer: 100
[1]; [17]
  Plant response rating, Pigweed, Palmer: 90
[1]; [18]
  Plant response rating, Pigweed, Palmer: 100
[2]; [15]
  Plant response rating, Nutsedge, Yellow: 0
[2]; [16]
  Plant response rating, Nutsedge, Yellow: 30
[2]; [17]
  Plant response rating, Nutsedge, Yellow: 0
[2]; [18]
  Plant response rating, Nutsedge, Yellow: 70
[3]; [15]
  Plant response rating, Lambsquarters: 100
[3]; [17]
  Plant response rating, Lambsquarters: 100
[3]; [19]
  Plant response rating, Lambsquarters: 100
[3]; [18]
  Plant response rating, Lambsquarters: 98
[4]; [15]
  Plant response rating, Dayflower, VA: 0
[4]; [17]
  Plant response rating, Dayflower, VA: 0
[4]; [19]
  Plant response rating, Dayflower, VA: 10
[4]; [18]
  Plant response rating, Dayflower, VA: 60
Corn (Zea mays); [15]
  Plant response rating, Corn: 0
Corn (Zea mays); [17]
  Plant response rating, Corn: 0
Corn (Zea mays); [19]
  Plant response rating, Corn: 0
Corn (Zea mays); [18]
  Plant response rating, Corn: 0
Soybean (Glycine max); [15]
  Plant response rating, Soybean: 50
Soybean (Glycine max); [16]
  Plant response rating, Soybean: 70
Soybean (Glycine max); [17]
  Plant response rating, Soybean: 70
Soybean (Glycine max); [18]
  Plant response rating, Soybean: 50
[5]; [15]
  Plant response rating, Barnyardgrass: 25
[5]; [17]
  Plant response rating, Barnyardgrass: 0
[5]; [19]
  Plant response rating, Barnyardgrass: 65
[5]; [18]
  Plant response rating, Barnyardgrass: 90
[6]; [15]
  Plant response rating, Ragweed: 85
[6]; [16]
  Plant response rating, Ragweed: 70
[6]; [17]
  Plant response rating, Ragweed: 90
[6]; [18]
  Plant response rating, Ragweed: 98
[7]; [15]
  Plant response rating, Johnsongrass: 70
[7]; [17]
  Plant response rating, Johnsongrass: 70
[7]; [19]
  Plant response rating, Johnsongrass: 65
[7]; [18]
  Plant response rating, Johnsongrass: 100
[8]; [15]
  Plant response rating, Foxtail, Giant: 80
[8]; [17]
  Plant response rating, Foxtail, Giant: 70
[8]; [19]
  Plant response rating, Foxtail, Giant: 95
[8]; [18]
  Plant response rating, Foxtail, Giant: 98
[9]; [15]
  Plant response rating, Velvetleaf: 95
[9]; [16]
  Plant response rating, Velvetleaf: 100
[9]; [17]
  Plant response rating, Velvetleaf: 70
[9]; [18]
  Plant response rating, Velvetleaf: 100
[10]; [15]
  Plant response rating, Sandbur: 75
[10]; [16]
  Plant response rating, Sandbur: 90
[10]; [17]
  Plant response rating, Sandbur: 75
[10]; [18]
  Plant response rating, Sandbur: 90
[11]; [15]
  Plant response rating, Foxtail, Green: 75
[11]; [17]
  Plant response rating, Foxtail, Green: 65
[11]; [19]
  Plant response rating, Foxtail, Green: 90
[11]; [18]
  Plant response rating, Foxtail, Green: 100
[12]; [15]
  Plant response rating, Horseweed: 100
[12]; [17]
  Plant response rating, Horseweed: 100
[12]; [19]
  Plant response rating, Horseweed: 100
[12]; [18]
  Plant response rating, Horseweed: 100
[13]; [15]
  Plant response rating, Beggarticks: 98
[13]; [17]
  Plant response rating, Beggarticks: 80
[13]; [19]
  Plant response rating, Beggarticks: 100
[13]; [18]
  Plant response rating, Beggarticks: 100
[14]; [15]
  Plant response rating, Panicum, Fall: 95
[14]; [16]
  Plant response rating, Panicum, Fall: 98
[14]; [17]
  Plant response rating, Panicum, Fall: 85
[14]; [18]
  Plant response rating, Panicum, Fall: 98
